Consider 29 compounds from US10273248B2, “Glucose uptake inhibitors” (Kadmon Corporation LLC, priority 2015, dated 2019).

Counter-ions that a name gives are not always drawn. Where only a bound is given, the exact number is not on record here.

This experiment relates to glycolysis in HT1080 cells. Nature of the experiment: Glycolysis assay: oligomycin plus compound, cellular ATP by Cell Titer Glo. The following applies: Homo sapiens, HT-1080, 1 h, 10 μM oligomycin, one hour, class symbols. Format: cell-based. The source says:
Therefore, an assay was developed that utilizes the combination of the glucose uptake inhibitors disclosed herein with oligomycin, a well-characterized inhibitor of ATP synthase. Because oligomycin inhibits ATP derived from oxidative phosphorylation, any remaining ATP production is derived from glycolysis. By reading out cellular ATP levels using the Promega Cell Titer Glo kit, the extent of glycolysis inhibition by the glucose uptake inhibitors disclosed herein can be assessed. […] Utilizing this experimental set-up, the IC50 of glycolysis inhibition for each compound can be determined.
Determination of Glucose Uptake/GLUT Activity (Glycolysis Assay):
HT1080 cells (as well as other cell types) were plated to confluency in 96-well plates. Cells were exposed to the combination of 10 μM Oligomycin (to block mitochondrial-derived ATP) and the glucose uptake inhibitors disclosed herein for one-hour, after which glycolytically-derived ATP was measured with the Cell Titer-Glo assay kit (Promega). Dose-response curves of the glucose uptake inhibitors disclosed herein were used to determine the IC50 for GLUT activity.
On to `CC(C)NC(=O)COc1cccc(-c2nc(Nc3ccc(-c4cn[nH]c4)cc3)c3ncsc3n2)c1` [Example 65, 2-(3-(7-((4-(1H-pyrazol-4-yl)phenyl)amino)thiazolo[5,4-d]pyrimidin-5-yl)phenoxy)-N-isopropylacetamide], for which the IC50 lay in the range of 251 to 500 nM.
In the case of `O=C(COc1cccc(-c2nc(Nc3ccc(-c4cn[nH]c4)cc3)c3ncsc3n2)c1)NC1CCC1` [Example 66, 2-(3-(7-((4-(1H-pyrazol-4-yl)phenyl)amino)thiazolo[5,4-d]pyrimidin-5-yl)phenoxy)-N-cyclobutylacetamide] it was 251 to 500 nM.
In the case of `O=C(COc1cccc(-c2nc(Nc3ccc(-c4cn[nH]c4)cc3)c3ncsc3n2)c1)NC1CCCC1` [Example 67, 2-(3-(7-((4-(1H-pyrazol-4-yl)phenyl)amino)thiazolo[5,4-d]pyrimidin-5-yl)phenoxy)-N-cyclopentylacetamide] it was 101 to 250 nM; in that of `CC(C)CNC(=O)COc1cccc(-c2nc(Nc3ccc(-c4cn[nH]c4)cc3)c3ncsc3n2)c1` [Example 68, 2-(3-(7-((4-(1H-pyrazol-4-yl)phenyl)amino)thiazolo[5,4-d]pyrimidin-5-yl)phenoxy)-N-isobutylacetamide], 251 to 500 nM.
For `O=C(Nc1cccc(-c2nc3c(c(Nc4ccc(-c5cn[nH]c5)cc4)n2)COC3)c1)c1cncc(Cl)c1` [Example 69, N-(3-(4-((4-(1H-pyrazol-4-yl)phenyl)amino)-5,7-dihydrofuro[3,4-d]pyrimidin-2-yl)phenyl)-5-chloronicotinamide], the IC50 fell in the range of 10 to 100 nM.
For `CC(C)(C)NC(=O)COc1cccc(-c2nc3c(c(Nc4ccc(-c5cn[nH]c5)cc4)n2)COC3)c1` [Example 70, 2-(3-(4-((4-(1H-pyrazol-4-yl)phenyl)amino)-5,7-dihydrofuro[3,4-d]pyrimidin-2-yl)phenoxy)-N-(tert-butyl)acetamide dihydrochloride] the value was 10 to 100 nM.
For the compound `Cc1ccc(C(=O)Nc2cccc(-c3nc4c(c(Nc5ccc(-c6cn[nH]c6)cc5)n3)COC4)c2)cn1` [Example 72, N-(3-(4-((4-(1H-pyrazol-4-yl)phenyl)amino)-5,7-dihydrofuro[3,4-d]pyrimidin-2-yl)phenyl)-6-methylnicotinamide], the IC50 was 10 to 100 nM.
In the case of `Cc1cncc(C(=O)Nc2cccc(-c3nc4c(c(Nc5ccc(-c6cn[nH]c6)cc5)n3)COC4)c2)c1` [Example 73, N-(3-(4-((4-(1H-pyrazol-4-yl)phenyl)amino)-5,7-dihydrofuro[3,4-d]pyrimidin-2-yl)phenyl)-5-methylnicotinamide], the IC50 is 10 to 100 nM.
`Cc1ccncc1C(=O)Nc1cccc(-c2nc3c(c(Nc4ccc(-c5cn[nH]c5)cc4)n2)COC3)c1` [Example 74, N-(3-(4-((4-(1H-pyrazol-4-yl)phenyl)amino)-5,7-dihydrofuro[3,4-d]pyrimidin-2-yl)phenyl)-4-methylnicotinamide]: the IC50 was in the range of 101 to 250 nM.
On to `O=C(Nc1cccc(-c2nc3c(c(Nc4ccc(-c5cn[nH]c5)cc4)n2)COC3)c1)c1cncc(F)c1` [Example 75, N-(3-(4-((4-(1H-pyrazol-4-yl)phenyl)amino)-5,7-dihydrofuro[3,4-d]pyrimidin-2-yl)phenyl)-5-fluoronicotinamide], for which the IC50 is 10 to 100 nM.
In the case of `CCC(CC)NC(=O)COc1cccc(-c2nc3c(c(Nc4ccc(-c5cn[nH]c5)cc4)n2)COC3)c1` [Example 76, 2-(3-(4-((4-(1H-pyrazol-4-yl)phenyl)amino)-5,7-dihydrofuro[3,4-d]pyrimidin-2-yl)phenoxy)-N-(pentan-3-yl)acetamide dihydrochloride] it was 10 to 100 nM; in that of `CCC(C)NC(=O)COc1cccc(-c2nc3c(c(Nc4ccc(-c5cn[nH]c5)cc4)n2)COC3)c1` (centres unmarked) [Example 77, 2-(3-(4-((4-(1H-pyrazol-4-yl)phenyl)amino)-5,7-dihydrofuro[3,4-d]pyrimidin-2-yl)phenoxy)-N-(sec-butyl)acetamide], 10 to 100 nM.
For `CC(C)CNC(=O)COc1cccc(-c2nc3c(c(Nc4ccc(-c5cn[nH]c5)cc4)n2)COC3)c1` [Example 78, 2-(3-(4-((4-(1H-pyrazol-4-yl)phenyl)amino)-5,7-dihydrofuro[3,4-d]pyrimidin-2-yl)phenoxy)-N-isobutylacetamide] the value was 10 to 100 nM; for `CC(C)(C)CNC(=O)COc1cccc(-c2nc3c(c(Nc4ccc(-c5cn[nH]c5)cc4)n2)COC3)c1` [Example 79, 2-(3-(4-((4-(1H-pyrazol-4-yl)phenyl)amino)-5,7-dihydrofuro[3,4-d]pyrimidin-2-yl)phenoxy)-N-neopentylacetamide], 10 to 100 nM.
In the case of `COc1cncc(C(=O)Nc2cccc(-c3nc4c(c(Nc5ccc(-c6cn[nH]c6)cc5)n3)COC4)c2)c1` [Example 80, N-(3-(4-((4-(1H-pyrazol-4-yl)phenyl)amino)-5,7-dihydrofuro[3,4-d]pyrimidin-2-yl)phenyl)-5-methoxynicotinamide] it was 10 to 100 nM.
With `O=C(COc1cccc(-c2nc3c(c(Nc4ccc(-c5cn[nH]c5)cc4)n2)COC3)c1)NC1CC(F)(F)C1` [Example 82, 2-(3-(4-((4-(1H-pyrazol-4-yl)phenyl)amino)-5,7-dihydrofuro[3,4-d]pyrimidin-2-yl)phenoxy)-N-(3,3-difluorocyclobutyl)acetamide], the IC50 was 101 to 250 nM.
For `CC(C)NC(=O)COc1cccc(-c2nc3c(c(Nc4ccc(-c5cn[nH]c5)cc4)n2)CSC3)c1` [Example 84, 2-(3-(4-((4-(1H-pyrazol-4-yl)phenyl)amino)-5,7-dihydrothieno[3,4-d]pyrimidin-2-yl)phenoxy)-N-isopropylacetamide] the value was 251 to 500 nM.
In the case of `O=C(COc1cccc(-c2nc3c(c(Nc4ccc(-c5cn[nH]c5)cc4)n2)CSC3)c1)NC1CCC1` [Example 86, 2-(3-(4-((4-(1H-pyrazol-4-yl)phenyl)amino)-5,7-dihydrothieno[3,4-d]pyrimidin-2-yl)phenoxy)-N-cyclobutylacetamide], the IC50 was 101 to 250 nM.
Take `O=C(COc1cccc(-c2nc3c(c(Nc4ccc(-c5cn[nH]c5)cc4)n2)CSC3)c1)NC1CCCC1` [Example 87, 2-(3-(4-((4-(1H-pyrazol-4-yl)phenyl)amino)-5,7-dihydrothieno[3,4-d]pyrimidin-2-yl)phenoxy)-N-cyclopentylacetamide]: the IC50 was in the range of 101 to 250 nM.
With `CCC(CC)NC(=O)COc1cc(F)cc(-c2nc3c(c(Nc4ccc(-c5cn[nH]c5)cc4)n2)COC3)c1` [Example 88, 2-(3-(4-((4-(1H-pyrazol-4-yl)phenyl)amino)-5,7-dihydrofuro[3,4-d]pyrimidin-2-yl)-5-fluorophenoxy)-N-(pentan-3-yl)acetamide], the IC50 fell in the range of 501 to 1000 nM.
`O=C(COc1cccc(-c2nc3c(c(Nc4ccc(-c5cn[nH]c5)cc4)n2)COC3)c1)NC1CCCCC1` [Example 89, 2-(3-(4-((4-(1H-pyrazol-4-yl)phenyl)amino)-5,7-dihydrofuro[3,4-d]pyrimidin-2-yl)phenoxy)-N-cyclohexylacetamide]: the IC50 lay within 10 to 100 nM.
Consider `CC(NC(=O)COc1cccc(-c2nc3c(c(Nc4ccc(-c5cn[nH]c5)cc4)n2)COC3)c1)C(F)(F)F` (centres unmarked) [Example 90, 2-(3-(4-((4-(1H-pyrazol-4-yl)phenyl)amino)-5,7-dihydrofuro[3,4-d]pyrimidin-2-yl)phenoxy)-N-(1,1,1-trifluoropropan-2-yl)acetamide], for which the IC50 was 10 to 100 nM.
In the case of `Cc1ccc(CNc2cccc(-c3nc4c(c(Nc5ccc(-c6cn[nH]c6)cc5)n3)COC4)c2)cn1` [Example 91, N-(4-(1H-pyrazol-4-yl)phenyl)-2-(3-(((6-methylpyridin-3-yl)methyl)amino)phenyl)-5,7-dihydrofuro[3,4-d]pyrimidin-4-amine] it was greater than 1000 nM.
On to `Fc1cncc(CNc2cccc(-c3nc4c(c(Nc5ccc(-c6cn[nH]c6)cc5)n3)COC4)c2)c1` [Example 92, N-(4-(1H-pyrazol-4-yl)phenyl)-2-(3-(((5-fluoropyridin-3-yl)methyl)amino)phenyl)-5,7-dihydrofuro[3,4-d]pyrimidin-4-amine], for which the IC50 is 501 to 1000 nM.
As to `Clc1cncc(CNc2cccc(-c3nc4c(c(Nc5ccc(-c6cn[nH]c6)cc5)n3)COC4)c2)c1` [Example 93, N-(4-(1H-pyrazol-4-yl)phenyl)-2-(3-(((5-chloropyridin-3-yl)methyl)amino)phenyl)-5,7-dihydrofuro[3,4-d]pyrimidin-4-amine], the IC50 lay within 501 to 1000 nM.
Take `Cc1cncc(CNc2cccc(-c3nc4c(c(Nc5ccc(-c6cn[nH]c6)cc5)n3)COC4)c2)c1` [Example 94, N-(4-(1H-pyrazol-4-yl)phenyl)-2-(3-(((5-methylpyridin-3-yl)methyl)amino)phenyl)-5,7-dihydrofuro[3,4-d]pyrimidin-4-amine]: the IC50 lay within 501 to 1000 nM.
As to `CC(C)NC(=O)COc1cc(-c2nc3c(c(Nc4ccc(-c5cn[nH]c5)cc4)n2)COC3)ccc1F` [Example 95, 2-(5-(4-((4-(1H-pyrazol-4-yl)phenyl)amino)-5,7-dihydrofuro[3,4-d]pyrimidin-2-yl)-2-fluorophenoxy)-N-isopropylacetamide], the IC50 was greater than 1000 nM.
`CC(C)(C)NC(=O)COc1cc(-c2nc3c(c(Nc4ccc(-c5cn[nH]c5)cc4)n2)COC3)ccc1F` [Example 96, 2-(5-(4-((4-(1H-pyrazol-4-yl)phenyl)amino)-5,7-dihydrofuro[3,4-d]pyrimidin-2-yl)-2-fluorophenoxy)-N-(tert-butyl)acetamide]: the IC50 is greater than 1000 nM.
On to `CCC(CC)NC(=O)COc1cc(-c2nc3c(c(Nc4ccc(-c5cn[nH]c5)cc4)n2)COC3)ccc1F` [Example 97, 2-(5-(4-((4-(1H-pyrazol-4-yl)phenyl)amino)-5,7-dihydrofuro[3,4-d]pyrimidin-2-yl)-2-fluorophenoxy)-N-(pentan-3-yl)acetamide], for which the IC50 was greater than 1000 nM.
